Patent publication US11753407B2, “Compounds for treating spinal muscular atrophy” (PTC Therapeutics, Inc., priority 2012, dated 2023)

How the values were obtained:
[1] = tested on: neonatal SMA Δ7 homozygous knockout mice; test: Survival of neonatal Δ7 SMA mice; type: in vivo
Description: The change in the number of surviving mice over time is used to determine whether treatment with a test compound improves survival.
Protocol. SMA Δ7 homozygous knockout mice are dosed intraperitoneally (IP) with test compound or vehicle (100% DMSO) QD from PND 3 until the dose regimen is switched to an oral dose BID in 0.5% hydroxypropylmethyl cellulose (HPMC) with 0.1% Tween-80 at a dose 3.16-fold higher than the dose used for IP and later switched to an oral dose QD in 0.5% hydroxypropylmethyl cellulose (HPMC) with 0.1% Tween-80 at a dose 6.32-fold higher than the dose used for IP. The number of surviving mice in each group is recorded every day and plotted as a percent of total number of mice. Tissues of SMA Δ7 and age-matched heterozygous mice are collected for the measurement of Smn protein levels and processed as detailed in Example 10. The total protein normalized Smn protein levels measured in the tissues are plotted as a percent of those in the age-matched heterozygous mice tissues, with the Smn level in heterozygous mice set to 100 percent. The level of Smn protein in the test compound treated mice tissue relative to that in heterozygous mice tissue is indicated as a percent value above each bar in the graph.

Smn protein = Smn protein levels in tissues of Δ7 SMA mice of the survival study; type: in vivo; details: spinal cord
Description: Protocol. The tissue samples in Safe-Lock tubes are weighed and the volume of RIPA buffer containing the protease inhibitor cocktail is added based on the weight to volume ratios for each type of tissue: Brain (50 mg/mL), Muscle (50 mg/mL) and Spinal Cord (25 mg/mL).
Tissues are homogenized using the TissueLyzer by bead milling. 5 mm stainless steel beads are added to the sample and shaken vigorously for 5 minutes at 30 Hz in the TissueLyzer. The samples are then centrifuged for 20 minutes at 14,000×g in a microcentrifuge and the homogenates transferred to the PCR plate. […] Fluorescence for each well of the plate at 665 nm and 620 nm is measured on an EnVision multilabel plate reader (Perkin-Elmer). The total protein in the tissue homogenate is measured using the BCA assay according to the manufacturer's protocol.
The normalized fluorescence signal is calculated for each sample, Blank and vehicle control well by dividing the signal at 665 nm by the signal at 620 nm. Normalizing the signal accounts for possible fluorescence quenching due to the matrix effect of the tissue homogenate. […] The ΔF value for each tissue sample well is divided by the total protein quantity (determined using the BCA assay) for that tissue sample. […]
Protocol. […] The number of surviving mice in each group is recorded every day and plotted as a percent of total number of mice. […]

[2] = tested on: gems (Smn protein nuclear foci) in SMA patient fibroblast cells (GM03813); test: Gems count (Smn-dependent nuclear speckle count) assay; type: cell-based, human; details: SMA Type 1 patient cells, 48 hours, relative to DMSO (FIG. 9)
Text: The level of Smn protein directly correlates with the amount of nuclear foci, also known as gems, produced upon staining the cell with a fluorescently labeled anti-Smn antibody (Liu and Dreyfuss, EMBO J., 1996, 15:3555). Gems are multi-protein complexes whose formation is nucleated by the Smn protein and the gems count assay is used to evaluate the level of Smn protein in the cell. As described herein, the gems count assay is used to quantify the level of Smn protein in SMA patient fibroblast cells treated with a test compound.
Protocol: Cells are thawed and incubated in DMEM-10% FBS for 72 hours, then trypsinized, counted and resuspended to 100,000 cells/mL in DMEM-10% FBS. The cell suspension (2 mL) is plated in a 6-well cell culture plate with a sterile cover slip and incubated for 3 to 5 hours. Test compounds are serially diluted 3.16-fold in 100% DMSO to generate a 7-point dilution curve. […]
Cell culture medium is aspirated from the wells containing cover slips and gently washed three times with cold PBS. […] The number of gems is counted per >150 nuclei and % activation is calculated using DMSO and 10 nM bortezomib as controls. For each test compound, the cells are examined at all wavelengths to identify test compounds with inherent fluorescence.

SMILES	survival ([1]; IP QD PND 3 to PND 30, then orally BID from PND 31 until study end (FIG. 15a))	Smn protein expression (Smn protein; IP 10 mg/kg QD PND 3-30, then orally 30 mg/kg BID PND 31-156, brain, muscle (FIG. 16a))	gems (nuclear speckle count) [2]	survival ([1]; IP QD PND 3 to PND 23, then orally BID from PND 24 until study end (FIG. 15b))	Smn protein expression (Smn protein; IP 3 mg/kg QD PND 3-23, orally 10 mg/kg BID PND 24-88, orally 20 mg/kg QD PND 89-185, brain, muscle (FIG. 16b))
COc1ccc(-c2cc(=O)n3cc(N4CCNCC4)ccc3n2)cc1OC [Cpd 6, 2-(3,4-dimethoxyphenyl)-7-(piperazin-1-yl)-4H-pyrido[1,2-a]pyrimidin-4-one]	improved compared to vehicle treated mice	increased Smn protein expression in brain, spinal cord, and muscle tissues	progressively more gems		
Cc1cn2nc(-c3cc(=O)n4cc(N5CCN(C)CC5)ccc4n3)cc2c(C)n1 [Cpd 170, 2-(4,6-dimethylpyrazolo[1,5-a]pyrazin-2-yl)-7-(4-methylpiperazin-1-yl)-4H-pyrido[1,2-a]pyrimidin-4-one]			progressively more gems	improved compared to vehicle treated mice	increased Smn protein expression in brain, spinal cord, and muscle tissues
